Data from BindingDB's records for doi:10.1021/jm030317k (Astrazeneca, 2004).

Key:
[1] = molecular target: Fibroblast growth factor receptor 1 (Homo sapiens, UniProt P11362); assay: In Vitro Src Kinase Inhibition Test
Excerpt: (§1) This assay determines the ability of test compounds to inhibit Src kinase activity that catalyzes the transfer of the terminal phosphate to the immobilized poly (Glu,Tyr) substrate detected using anti-phosphotyrosine monoclonal antibody conjugated to alkaline phosphatase. IC50 values for compound enzyme inhibition were obtained using KC3 Kineticalc software (Bio-Tek Instruments) following subtraction of the blank values.

[2] = molecular target: Vascular endothelial growth factor receptor 1 (Homo sapiens, UniProt P17948); assay: In Vitro Src Kinase Inhibition Test
Vascular endothelial growth factor receptor 1, sequence (P17948 whole entry): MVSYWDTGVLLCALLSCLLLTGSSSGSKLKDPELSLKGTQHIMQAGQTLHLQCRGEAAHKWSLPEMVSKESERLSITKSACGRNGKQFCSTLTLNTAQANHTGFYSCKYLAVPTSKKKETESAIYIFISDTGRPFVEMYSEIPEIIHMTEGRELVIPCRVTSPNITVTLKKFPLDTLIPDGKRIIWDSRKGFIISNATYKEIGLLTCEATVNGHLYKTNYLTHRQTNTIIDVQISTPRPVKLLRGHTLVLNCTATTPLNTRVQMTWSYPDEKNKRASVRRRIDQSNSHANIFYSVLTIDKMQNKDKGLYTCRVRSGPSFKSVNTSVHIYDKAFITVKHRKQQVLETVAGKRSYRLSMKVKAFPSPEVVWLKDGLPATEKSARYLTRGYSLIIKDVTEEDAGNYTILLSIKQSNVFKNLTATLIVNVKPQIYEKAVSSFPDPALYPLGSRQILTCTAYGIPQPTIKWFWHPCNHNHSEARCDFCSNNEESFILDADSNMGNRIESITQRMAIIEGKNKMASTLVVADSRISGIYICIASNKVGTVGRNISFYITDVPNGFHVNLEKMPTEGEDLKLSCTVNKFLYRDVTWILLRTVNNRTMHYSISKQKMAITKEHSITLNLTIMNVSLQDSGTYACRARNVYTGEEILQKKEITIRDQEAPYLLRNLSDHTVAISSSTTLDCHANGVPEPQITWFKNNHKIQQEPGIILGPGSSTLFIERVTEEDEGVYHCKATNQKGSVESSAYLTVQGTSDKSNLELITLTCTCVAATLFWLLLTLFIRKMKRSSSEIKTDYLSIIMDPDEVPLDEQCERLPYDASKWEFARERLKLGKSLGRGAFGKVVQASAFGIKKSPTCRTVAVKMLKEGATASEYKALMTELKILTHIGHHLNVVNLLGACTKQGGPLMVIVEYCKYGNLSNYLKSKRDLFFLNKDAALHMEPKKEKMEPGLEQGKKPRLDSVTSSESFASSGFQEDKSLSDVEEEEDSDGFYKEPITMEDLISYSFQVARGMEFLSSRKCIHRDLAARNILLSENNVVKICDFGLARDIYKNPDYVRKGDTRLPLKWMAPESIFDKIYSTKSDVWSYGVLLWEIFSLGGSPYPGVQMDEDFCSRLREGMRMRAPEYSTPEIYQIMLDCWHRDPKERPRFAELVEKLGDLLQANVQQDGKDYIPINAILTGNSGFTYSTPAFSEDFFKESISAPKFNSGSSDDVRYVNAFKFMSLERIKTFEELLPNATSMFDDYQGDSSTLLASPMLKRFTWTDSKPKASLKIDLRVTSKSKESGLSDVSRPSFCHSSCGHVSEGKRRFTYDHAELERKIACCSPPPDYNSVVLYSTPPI
Excerpt: as §1

[3] = molecular target: T1, Vascular endothelial growth factor receptor 2 (Homo sapiens, UniProt P35968); assay: VEGF-R Kinase Inhibition Assay; details: 25 °C
T1 sequence (P35968 whole entry): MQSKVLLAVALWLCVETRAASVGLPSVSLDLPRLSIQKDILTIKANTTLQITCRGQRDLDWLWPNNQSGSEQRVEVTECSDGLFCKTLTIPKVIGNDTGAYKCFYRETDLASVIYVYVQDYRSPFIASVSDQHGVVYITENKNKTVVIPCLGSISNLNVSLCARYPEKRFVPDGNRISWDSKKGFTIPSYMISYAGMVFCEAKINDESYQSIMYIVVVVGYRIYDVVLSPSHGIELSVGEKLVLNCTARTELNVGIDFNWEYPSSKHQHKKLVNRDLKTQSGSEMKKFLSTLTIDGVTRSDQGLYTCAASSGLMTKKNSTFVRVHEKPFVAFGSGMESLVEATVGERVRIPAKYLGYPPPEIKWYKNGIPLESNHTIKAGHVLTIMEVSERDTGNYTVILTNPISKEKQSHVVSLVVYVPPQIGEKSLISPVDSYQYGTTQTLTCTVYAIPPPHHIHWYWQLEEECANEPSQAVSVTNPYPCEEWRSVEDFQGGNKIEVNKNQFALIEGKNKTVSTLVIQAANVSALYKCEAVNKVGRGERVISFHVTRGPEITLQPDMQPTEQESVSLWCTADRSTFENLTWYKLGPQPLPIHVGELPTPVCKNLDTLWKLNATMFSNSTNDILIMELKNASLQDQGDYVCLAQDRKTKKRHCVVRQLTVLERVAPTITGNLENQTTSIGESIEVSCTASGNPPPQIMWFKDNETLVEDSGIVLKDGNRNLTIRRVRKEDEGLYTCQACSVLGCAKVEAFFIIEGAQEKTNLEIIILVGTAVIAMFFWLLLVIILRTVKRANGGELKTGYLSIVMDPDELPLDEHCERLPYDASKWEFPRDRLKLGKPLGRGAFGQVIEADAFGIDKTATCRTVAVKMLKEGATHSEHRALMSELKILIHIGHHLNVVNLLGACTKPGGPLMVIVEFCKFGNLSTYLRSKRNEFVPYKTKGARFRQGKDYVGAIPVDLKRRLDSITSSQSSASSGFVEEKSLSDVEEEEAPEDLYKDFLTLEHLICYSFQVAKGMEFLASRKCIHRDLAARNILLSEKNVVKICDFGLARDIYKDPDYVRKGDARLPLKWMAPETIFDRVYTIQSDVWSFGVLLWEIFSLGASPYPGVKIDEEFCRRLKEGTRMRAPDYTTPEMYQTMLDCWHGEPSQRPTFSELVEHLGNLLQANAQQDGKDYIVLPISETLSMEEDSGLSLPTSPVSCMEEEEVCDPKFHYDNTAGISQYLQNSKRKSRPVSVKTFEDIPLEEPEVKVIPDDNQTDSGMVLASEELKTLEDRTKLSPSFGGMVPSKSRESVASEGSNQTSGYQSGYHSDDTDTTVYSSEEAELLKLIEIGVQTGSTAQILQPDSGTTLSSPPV
Experimental: An ELISA assay was used to determine the ability of inhibitor to inhibit VEGF-RRTK activity. The compounds were incubated with enzyme 20 min at room temperature, with 2uM ATP in 96-well plates coated with a poly(Glu, Ala, Tyr) 6:3:1 random copolymer substrate. Phosphorylated tyrosine was then detected by sequential in cubation with anti-phosphotyrosine antibody. IC50 data were interpolated by nonlinear regression using Microcal Origin software.

[4] = molecular target: Proto-oncogene tyrosine-protein kinase Src (Homo sapiens, UniProt P12931); assay: In Vitro Src Kinase Inhibition Test; details: pH 7.4; 22 °C
Proto-oncogene tyrosine-protein kinase Src, sequence (P12931 2-536 limits assumed): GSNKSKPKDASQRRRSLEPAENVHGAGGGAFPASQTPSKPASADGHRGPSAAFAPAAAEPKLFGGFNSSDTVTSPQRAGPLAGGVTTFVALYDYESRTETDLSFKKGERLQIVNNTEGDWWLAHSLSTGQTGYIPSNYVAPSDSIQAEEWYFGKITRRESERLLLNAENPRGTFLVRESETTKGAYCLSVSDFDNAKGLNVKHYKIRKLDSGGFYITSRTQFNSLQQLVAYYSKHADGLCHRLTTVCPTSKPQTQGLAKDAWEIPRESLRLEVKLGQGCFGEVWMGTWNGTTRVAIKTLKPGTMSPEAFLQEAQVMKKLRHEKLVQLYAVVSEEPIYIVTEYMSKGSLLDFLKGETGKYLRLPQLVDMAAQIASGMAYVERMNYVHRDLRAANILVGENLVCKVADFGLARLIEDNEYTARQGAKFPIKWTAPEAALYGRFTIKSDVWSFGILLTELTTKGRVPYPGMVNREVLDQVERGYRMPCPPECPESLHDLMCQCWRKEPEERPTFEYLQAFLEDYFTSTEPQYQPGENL
Excerpt: as §1

[5] = molecular target: T1, Vascular endothelial growth factor receptor 2; assay: In Vitro Src Kinase Inhibition Test
Excerpt: as §1

Fibroblast growth factor receptor 1, sequence (P11362 whole entry): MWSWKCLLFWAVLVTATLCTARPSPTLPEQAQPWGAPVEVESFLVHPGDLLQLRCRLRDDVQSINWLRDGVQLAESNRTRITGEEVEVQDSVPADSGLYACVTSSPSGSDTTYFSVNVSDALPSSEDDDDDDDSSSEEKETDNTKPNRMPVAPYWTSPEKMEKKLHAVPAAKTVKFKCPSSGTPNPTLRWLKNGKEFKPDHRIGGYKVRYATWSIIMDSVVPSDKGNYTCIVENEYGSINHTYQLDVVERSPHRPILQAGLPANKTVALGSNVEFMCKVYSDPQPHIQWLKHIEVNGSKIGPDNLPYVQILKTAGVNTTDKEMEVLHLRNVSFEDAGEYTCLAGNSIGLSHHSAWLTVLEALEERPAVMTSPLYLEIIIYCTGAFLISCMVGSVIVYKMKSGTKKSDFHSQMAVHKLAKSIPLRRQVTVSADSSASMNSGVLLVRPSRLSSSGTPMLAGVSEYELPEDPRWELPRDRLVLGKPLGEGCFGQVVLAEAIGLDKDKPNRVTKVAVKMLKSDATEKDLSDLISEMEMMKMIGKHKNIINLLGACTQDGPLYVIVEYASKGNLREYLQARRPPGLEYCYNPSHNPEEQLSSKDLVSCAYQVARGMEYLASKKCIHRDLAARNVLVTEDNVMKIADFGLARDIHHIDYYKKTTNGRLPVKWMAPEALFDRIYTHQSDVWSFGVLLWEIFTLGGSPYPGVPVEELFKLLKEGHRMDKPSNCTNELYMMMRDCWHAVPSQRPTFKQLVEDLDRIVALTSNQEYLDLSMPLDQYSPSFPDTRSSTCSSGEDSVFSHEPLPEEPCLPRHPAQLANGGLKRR

Q: How did the IC50 [1] turn out when `COc1cc2c(Nc3c(Cl)ccc4c3OCO4)ncnc2cc1OCc1ccnc(C#N)c1` [4-[({4-[(5-chloro-2H-1,3-benzodioxol-4-yl)amino]-6-methoxyquinazolin-7-yl}oxy)methyl]pyridine-2-carbonitrile] was run?
A: Its IC50 is over 100 µM.

Q: What about the IC50 [2] of the same molecule?
A: The IC50 was over 100 µM.

Q: Which results are given for `COc1ccc(Cl)c(Nc2ncnc3cc(OCC4CCN(C)CC4)c(OC)cc23)c1` [AZD0530 analogue 35]?
A: IC50 [3]: 0.67 µM; IC50 [4]: 0.01 µM

Q: How did the IC50 [5] turn out when `COc1cc2c(Nc3c(Cl)ccc4c3OCO4)ncnc2cc1OCCCN1CCCCC1` [BMCL182776 Compound 1] was run?
A: The IC50 was 21.7 µM.
